Results on 1 compound are retold here after US11219598B2, “Ophthalmic drug sustained release device” (PUBLIC UNIVERSITY CORPORATION NAGOYA CITY UNIVERSITY, priority 2016, dated 2022).

This series is described as follows: Drug release test of solid fluorescein sodium-enclosed PMMA hollow device filled with SF6 gas after transplantation into rabbit. In kind it is in vivo. The conditions noted are these: fluorescence intensity meter, after initial burst, from the first week. As for the experimental part:
In order to prepare a hollow device made of a polymethyl methacrylate (PMMA) resin as an acrylic resin having low oxygen permeability, outer edge portions of optical parts of two PMMA intraocular lenses were bonded with an adhesive, as a trial model. The cavity volume was calculated to be 11.3 μL. One opening part was made without using an adhesive (arrow) (FIG. 3(A), and FIG. 4). In order to examine the drug release property, a 10% aqueous solution of sodium fluorescein as a low-molecular-weight water-soluble fluorescent dye was filled in the cavity of the PMMA hollow device and air-dried (FIG. 3(B)). The solid fluorescein sodium-enclosed PMMA hollow device was placed in 100% SF6 gas, and its hollow portion was filled with the gas (FIG. 3(B)). After a rabbit was anesthetized by intramuscular injection of Ketalar and Selactar, the pupil of the right eye was dilated with a […] hydrochloride ophthalmic solution (Mydrin-P (registered trademark), Santen Pharmaceutical Co., Ltd.). […] The residual amount of gas was measured from the photograph of the anterior ocular segment and the content of fluorescein sodium in the anterior chamber water sample was measured with a fluorescence intensity meter. […]

As for `O=C1OC2(c3ccc(O)cc3Oc3cc(O)ccc32)c2ccccc21` [fluorescein sodium, sodium fluorescein], the “drug release profile (fluorescein sodium content in anterior chamber water)” value is reported as “stable sustained release”.
